Measured values as given in patent publication US20260097056A1, “SYK ACTIVATORS AND INHIBITORS IN NEURODEGENERATIVE DISEASES” (University of Virginia Patent Foundation, priority 2022, published 2026).

How the values were obtained:
[1] = test system: bone marrow-derived macrophages (BMDMs); experiment: In vitro Aβ phagocytosis assay (CypHer5E-tagged Aβ oligomers, flow cytometry); format: cell-based, mouse; conditions: SYK-deficient (Syk^fl/fl LysM^Cre) BMDMs; 10 μM Tideglusib 1 hour before 10 μM CypHer5E-tagged Aβ oligomers; read 24 hours later; vs vehicle
Description: Monomerization of Aβ (1-42) (641-15, California peptide) was achieved using a previously published protocol (Stine et al., 2011), using hexafluoroisopropanol (HFIP) (52517, Sigma-Aldrich). 5 mM monomeric Aβ samples were incubated for 24 hours at 4° C. in F12 media to make a 200 μM stock of oligomeric Aβ. Samples were then incubated with CypHer5E-NHS ester (PA15401, […]) diluted in 0.1 M sodium bicarbonate for 30 minutes covered and at room temperature. Following incubation, Biospin columns (7326227, Bio-Rad) were used to […] unbound dye. CypHer5E-tagged Aβ oligomers were stored at 4° C. prior to BMDM treatment. Bone marrow-derived macrophages (BMDMs) were isolated from the hindlimbs of WT and Syk^fl/fl LysM^Cre mice. Marrow-containing bones were sprayed with 70% ethanol before being placed in IMDM (Thermo Fisher, 12440-053) containing penicillin/streptomycin (P/S) (Thermo Fisher, 15140163). A 25-gauge needle was used to flush marrow from the bones using 20 ml of IMDM containing P/S. An 18-gauge needle was then used to triturate flushed bone marrow 5 times to make a single-cell suspension. Samples were spun down at 1500 rpm for 5 minutes at 4° C. […] 24 hours post Aβ treatment, BMDMs were then collected, and flow cytometry was used to assess CypHer5E fluorescence. […]

[2] = test system: 5xFAD mice; experiment: Intrahippocampal injection, Aβ load in hippocampus by immunofluorescence; format: in vivo; conditions: 2 μg pustulan intrahippocampal vs vehicle-injected hemisphere of the same mouse, 7 days post injection
Description: Floating brains sectioned stored in PBS+0.05% sodium azide were blocked with 2% donkey serum, 1% bovine serum albumin, 0.1% triton, 0.05% tween in PBS for 1 hour at room temperature before applying the primary antibody master mix diluted in this block overnight at 4° C. Samples were stained with anti-AB (D54D2, Cell Signaling, 1:300; or 6e10, BioLegend, 1:1000) to label plaques. To study microglial morphology and numbers, sections were stained with Iba1 (ab5076, Abcam, 1:300). To further characterize microglia, we labeled with Ki67-EF660 (SoIA15, Thermo Fisher, 1:100), anti-Clec7a (R1-8g7, Invivogen, 1:30), Tmem119 (ab209064, Abcam, 1:300), and anti-CD68 (FA-11, BioRad, 1:1000). […] Quantification of images were performed using Fiji software or Imaris software (9.5.1).
5xFAD and 5xFAD Syk^ΔMG mice were anesthetized before receiving a bilateral hippocampal injection of 2 μl of vehicle or 2 μg pustulan into the right and left hemisphere of the hippocampus (at +2 mm lateral, −2 mm posterior, and −2 mm ventral relative to the intersection of the coronal and sagittal suture (bregma) at a rate of 200 nl/min) using a stereotaxic frame (51730U, Stoelting) and nanoliter injector (NL2010MC2T, World Precision Instruments). […] Images were analyzed using Fiji software and Imaris software (9.5.1).

Compound | Aβ phagocytosis (CypHer5E fluorescence, percent CypHer5E+ CD11b^hi F4/80^hi cells) [1] | Aβ load in injected hippocampal hemisphere (D54D2 immunofluorescence) [2]
O=c1sn(-c2cccc3ccccc23)c(=O)n1Cc1ccccc1 [Tideglusib] | significantly increased Aβ phagocytosis | 
pustulan |  | decreased Aβ load
